In patent publication US7632657B2, “Method of detecting meticillin-resistant microorganisms” (priority 2002, dated 2009):
Values belong to the compound of their own block, whether it stands above or below them.

Tests used:
[1] = Stability of the detection medium prepared with the antibiotic; type: physicochemical; details: added when the medium is at 48° C.
Protocol: For example, a stability of at least 2 months has been observed for a medium in accordance with the invention prepared with cefoxitin at a concentration of 5 mg/l, added to the medium when the latter is at a temperature of 48° C. The stability of the medium in accordance with the invention has been brought to at least 5 months when said medium has been prepared with cefmetazole at a concentration of 2.5 mg/l, added to the medium when the latter is at a temperature of 48° C.
The expression “stability of the medium” is intended to denote the ability of the medium in accordance with the invention to allow the selective detection of meticillin-resistant microorganisms, in particular staphylococcus aureus, for a given period of time, with the same reliability throughout the period of time.

[2] = tested on: Z252: meticillin-resistant strain, homogeneous, low level of resistance; experiment: Growth of S. aureus strains streaked on CHROMagar Staph aureus medium with antibiotic: low-level resistant strain; type: cell-based, Staphylococcus aureus; parameters: key: + = colony growth; − = no growth; * = microcolonies; details: streaked dishes, 37° C. for 24 hours
Text: (§1) Study of the growth of meticillin-resistant S. aureus strains on CHROMagar Staph aureus medium (available from the company CHROMagar, 4, Place du 18 Juin 1940, 75006 Paris France): • AR4295 MetiS: meticillin-sensitive strain • AR4297 MetiR: (homogeneous) meticillin-resistant strain • MRhet: (heterogeneous) meticillin-resistant strain • Z252: meticillin-resistant strain, homogeneous, low level of resistance
(§2) Petri dishes are inoculated with bacterial cultures by streaking the dishes, in order to observe the growth of isolated bacteria, after incubation at 37° C. for 24 hours.
(§3) The bacteria that grow give purple colonies on the culture medium, confirming that the microorganisms are Staphylococcus aureus.

[3] = tested on: AR4297 MetiR: (homogeneous) meticillin-resistant strain; experiment: Growth of S. aureus strains streaked on CHROMagar Staph aureus medium with antibiotic: homogeneous meticillin-resistant strain; type: cell-based, Staphylococcus aureus; parameters: key: + = colony growth; − = no growth; * = microcolonies; details: CHROMagar Staph aureus + Cefoxitin 5 mg/l; streaked dishes, 37° C. for 24 hours
Text: as §1, §2, §3

[4] = tested on: AR4295 MetiS: meticillin-sensitive strain; experiment: Growth of S. aureus strains streaked on CHROMagar Staph aureus medium with antibiotic: meticillin-sensitive strain; type: cell-based, Staphylococcus aureus; parameters: key: + = colony growth; − = no growth; * = microcolonies; details: streaked dishes, 37° C. for 24 hours
Text: as §1, §2, §3

[5] = tested on: MRhet: (heterogeneous) meticillin-resistant strain; experiment: Growth of S. aureus strains streaked on CHROMagar Staph aureus medium with antibiotic: heterogeneous meticillin-resistant strain; type: cell-based, Staphylococcus aureus; parameters: key: + = colony growth; − = no growth; * = microcolonies; details: streaked dishes, 37° C. for 24 hours
Text: as §1, §2, §3

[6] = Conservation of antibiotic activity on heating; type: physicochemical; details: temperature of greater than 100° C.; resistance verified by the inventors at 121° C.
Protocol: (its resistance having even been verified by the inventors at 121° C.).

[7] = CHROMagar Staph aureus + Cefoxitin 5 mg/l
[8] = CHROMagar Staph aureus + oxacillin 6 mg/ml

stability of the medium ([1]; medium prepared with cefoxitin at 5 mg/l): at least 2 months
Compound: CO[C@@]1(NC(=O)Cc2cccs2)C(=O)N2C(C(=O)O)=C(COC(N)=O)CS[C@@H]21 [Cefoxitin, cefoxitin]
colony growth, Z252 [2, 7]: +
colony growth, AR4297 MetiR [3]: +
colony growth, AR4295 MetiS [4, 7]: −
colony growth, MRhet [5, 7]: +

stability of the medium ([1]; medium prepared with cefmetazole at 2.5 mg/l): at least 5 months
Compound: CO[C@@]1(NC(=O)CSCC#N)C(=O)N2C(C(=O)O)=C(CSc3nnnn3C)CS[C@@H]21 [cefmetazole]

ability to conserve antibiotic activity on heating [6]: conserve its antibiotic activity
Compound: CO[C@@]1(NC(=O)CSC(F)F)C(=O)N2C(C(=O)O)=C(CSc3nnnn3CCO)CO[C@@H]21 [flomoxef]

Compound: Cc1onc(-c2ccccc2)c1C(=O)N[C@@H]1C(=O)N2[C@@H]1SC(C)(C)[C@@H]2C(=O)O [oxacillin]
colony growth, Z252 [2, 8]: −
colony growth, AR4295 MetiS [4, 8]: −
colony growth, MRhet [5, 8]: −
